According to patent US10323031B2, “Pesticidally active tetracyclic derivatives with sulfur containing substituents” (Syngenta Participations AG, priority 2015, dated 2019):

Key:
Format in all cases: in vivo
[1] = test system: Plutella xylostella (Diamond Back Moth); assay: Plutella xylostella larvae on artificial diet (Example B7); details: 120 h, application rate of 200 ppm, L2 larvae, 5 days after infestation, read-out: effect in at least one of the two categories (mortality or growth inhibition)
Experimental: Plutella xylostella (Diamond Back Moth)
(§1) 24-well microtiter plates with artificial diet were treated with aqueous test solutions prepared from 10,000 ppm DMSO stock solutions by pipetting. After drying, the plates were infested with L2 larvae (10 to 15 per well). The samples were assessed for mortality and growth inhibition in comparison to untreated samples 5 days after infestation.

[2] = test system: Myzus persicae (Green Peach Aphid); assay: Myzus persicae feeding/contact activity (Example B5); details: foliar, 144 h, application rate of 200 ppm, sunflower leaf discs, aphid population of mixed ages, 6 days after infestation
Experimental: Myzus persicae (Green Peach Aphid): Feeding/Contact Activity
Sunflower leaf discs were placed onto agar in a 24-well microtiter plate and sprayed with aqueous test solutions prepared from 10,000 ppm DMSO stock solutions. After drying, the leaf discs were infested with an aphid population of mixed ages. The samples were assessed for mortality 6 days after infestation.

[3] = test system: Diabrotica Balteata (Corn root worm); assay: Diabrotica balteata larvae on maize sprouts (Example B2); details: 96 h, application rate of 200 ppm, L2 larvae, 4 days after infestation, read-out: effect in at least one of the two categories (mortality or growth inhibition)
Experimental: Diabrotica Balteata (Corn root worm)
as §1, with “Maize sprouts placed onto an agar layer in 24-well” for “24-well”, “plates” for “plates with artificial diet”, “spraying.” for “pipetting.”, “(6” for “(10”, “10” for “15”, “4” for “5”

[4] = test system: Spodoptera littoralis (Egyptian Cotton Leaf Worm); assay: Spodoptera littoralis on sprayed cotton leaf discs (Example B8); details: foliar, 72 h, application rate of 200 ppm, L1 larvae, 3 days after infestation, read-out: control (mortality, anti-feeding effect, growth inhibition)
Experimental: (§2) Spodoptera littoralis (Egyptian Cotton Leaf Worm)
Cotton leaf discs were placed onto agar in 24-well microtiter plates and sprayed with aqueous test solutions prepared from 10,000 ppm DMSO stock solutions. After drying the leaf discs were infested with five L1 larvae. The samples were assessed for mortality, anti-feeding effect, and growth inhibition in comparison to untreated samples 3 days after infestation. Control of Spodoptera littoralis by a test sample is given when at least one of the categories mortality, anti-feedant effect, and growth inhibition is higher than the untreated sample.

[5] = test system: Euschistus heros (Neotropical Brown Stink Bug); assay: Euschistus heros nymphs on soybean leaves (Example B3); details: 120 h, application rate of 200 ppm, N2 nymphs, 5 days after infestation, read-out: effect in at least one of the two categories (mortality or growth inhibition)
Experimental: Euschistus heros (Neotropical Brown Stink Bug)
Soybean leaves on agar in 24-well microtiter plates were sprayed with aqueous test solutions prepared from 10,000 ppm DMSO stock solutions. After drying the leaves were infested with N2 nymphs. The samples were assessed for mortality and growth inhibition in comparison to untreated samples 5 days after infestation.

[6] = test system: Myzus persicae (Green Peach Aphid); assay: Myzus persicae systemic activity (Example B6); details: 144 h, test rate of 24 ppm, roots of pea seedlings in test solution, 6 days
Experimental: Myzus persicae (Green Peach Aphid): Systemic Activity
Roots of pea seedlings infested with an aphid population of mixed ages were placed directly into aqueous test solutions prepared from 10,000 DMSO stock solutions. The samples were assessed for mortality 6 days after placing seedlings into test solutions.

[7] = test system: Spodoptera littoralis (Egyptian Cotton Leaf Worm); assay: Spodoptera littoralis, uptake by lettuce roots from agar (Example B9); details: 144 h, test rate of 12.5 ppm, lettuce grown on treated agar, eggs, 6 days after infestation, read-out: effect in at least one of the three categories (mortality, anti-feeding, or growth inhibition)
Description: as §2
Test compounds were applied by pipette from 10,000 ppm DMSO stock solutions into 24-well plates and mixed with agar. Lettuce seeds were placed onto the agar and the multi well plate was closed by another plate which contained also agar. After 7 days the compound was absorbed by the roots and the lettuce grew into the lid plate. The lettuce leaves were then cut off into the lid plate. Spodoptera eggs were pipetted through a plastic stencil onto a humid gel blotting paper and the lid plate was closed with it. The samples were assessed for mortality, anti-feedant effect and growth inhibition in comparison to untreated samples 6 days after infestation.

[8] = test system: Frankliniella occidentalis (Western Flower Thrips); assay: Frankliniella occidentalis feeding/contact activity (Example B4); details: foliar, 168 h, application rate of 200 ppm, sunflower leaf discs, population of mixed ages, 7 days after infestation
Experimental: Frankliniella occidentalis (Western Flower Thrips): Feeding/Contact Activity
Sunflower leaf discs were placed on agar in 24-well microtiter plates and sprayed with aqueous test solutions prepared from 10,000 DMSO stock solutions. After drying the leaf discs were infested with a Frankliniella population of mixed ages. The samples were assessed for mortality 7 days after infestation.

[9] = test system: Bemisia Tabaci (Cotton White Fly); assay: Bemisia tabaci feeding/contact activity (Example B1); details: foliar, 144 h, application rate of 200 ppm, cotton leaf discs, adult white flies, 6 days after incubation
Experimental: Bemisia Tabaci (Cotton White Fly): Feeding/Contact Activity
Cotton leaf discs were placed on agar in 24-well microtiter plates and sprayed with aqueous test solutions prepared from 10,000 ppm DMSO stock solutions. After drying the leaf discs were infested with adult white flies. The samples were checked for mortality 6 days after incubation.

[10] = test system: Tetranychus urticae (Two-spotted Spider Mite); assay: Tetranychus urticae feeding/contact activity (Example B10); details: foliar, 192 h
Experimental: Tetranychus urticae (Two-spotted Spider Mite): Feeding/Contact Activity
Bean leaf discs on agar in 24-well microtiter plates were sprayed with aqueous test solutions prepared from 10,000 ppm DMSO stock solutions. After drying the leaf discs were infested with a mite population of mixed ages. The samples were assessed for mortality on mixed population (mobile stages) 8 days after infestation.

CCSc1cc2ccccc2nc1-c1nc2cc(C(F)(F)F)n(CC)c(=O)c2n1C [Compound A3, 5-ethyl-2-(3-ethylsulfanyl-2-quinolyl)-3-methyl-6-(trifluoromethyl)-3aH-imidazo[4,5-c]pyridin-4-one]
≥ 80%: percent effect (mortality or growth inhibition) at 200 ppm [1] | mortality at 200 ppm [2] | percent effect (mortality or growth inhibition) at 200 ppm [3] | mortality at 200 ppm [4]

CCn1c(C(F)(F)F)cc2nc(-c3cc4ccncc4cc3S(=O)(=O)CC)n(C)c2c1=O [Compound A8, 5-ethyl-2-(7-ethylsulfonyl-6-isoquinolyl)-3-methyl-6-(trifluoromethyl)imidazo[4,5-c]pyridin-4-one]
≥ 80%: percent effect (mortality or growth inhibition) at 200 ppm [1] | percent effect (mortality or growth inhibition) at 200 ppm [5] | percent effect (mortality or growth inhibition) at 200 ppm [3] | mortality at 200 ppm [4]

CCSc1cc2c(cc1-c1nc3cc(C(F)(F)F)n(CC)c(=O)c3n1C)nc(C(F)(F)F)n2C [Compound A5, 5-ethyl-2-[6-ethylsulfanyl-1-methyl-2-(trifluoromethyl)benzimidazol-5-yl]-3-methyl-6-(trifluoromethyl)imidazo[4,5-c]pyridin-4-one]
≥ 80%: percent effect (mortality or growth inhibition) at 200 ppm [5] | mortality at 200 ppm [4]

CCn1c(C(F)(F)F)cc2nc(-c3cc4cc[n+]([O-])cc4cc3S(=O)(=O)CC)n(C)c2c1=O [Compound A9, 5-ethyl-2-(7-ethylsulfonyl-2-oxido-isoquinolin-2-ium-6-yl)-3-methyl-6-(trifluoromethyl)imidazo[4,5-c]pyridin-4-one]
≥ 80%: percent effect (mortality or growth inhibition) at 200 ppm [1] | mortality at 200 ppm [4] | mortality at 24 ppm [6]

CCSc1cc2ccccc2cc1-c1nc2cc(C(F)(F)F)n(CC)c(=O)c2n1C [Compound A1, 5-ethyl-2-(3-ethylsulfanyl-2-naphthyl)-3-methyl-6-(trifluoromethyl)-3aH-imidazo[4,5-c]pyrid in-4-one]
≥ 80%: percent effect (mortality or growth inhibition) at 200 ppm [1] | percent effect (mortality or growth inhibition) at 200 ppm [5] | percent effect (mortality or growth inhibition) at 200 ppm [3] | mortality at 200 ppm [4]

CCn1c(C(F)(F)F)cc2nc(-c3cc4nc(C(F)(F)F)n(C)c4cc3S(=O)(=O)CC)n(C)c2c1=O [Compound A6, 5-ethyl-2-[6-ethylsulfonyl-1-methyl-2-(trifluoromethyl)benzimidazol-5-yl]-3-methyl-6-(trifluoromethyl)imidazo[4,5-c]pyridin-4-one]
≥ 80%: percent effect (mortality, anti-feeding or growth inhibition) at 12.5 ppm [7] | percent effect (mortality or growth inhibition) at 200 ppm [1] | percent effect (mortality or growth inhibition) at 200 ppm [5] | mortality at 200 ppm [2] | mortality at 200 ppm [8] | mortality at 200 ppm [4] | mortality at 24 ppm [6] | mortality at 200 ppm [9]

CCn1c(C(F)(F)F)cc2nc(-c3cc4ccccc4cc3S(=O)(=O)CC)n(C)c2c1=O [Compound A2, 5-ethyl-2-(3-ethylsulfonyl-2-naphthyl)-3-methyl-6-(trifluoromethyl)-6H-im idazo[4,5-c]pyridin-4-one]
≥ 80%: percent effect (mortality, anti-feeding or growth inhibition) at 12.5 ppm [7] | percent effect (mortality or growth inhibition) at 200 ppm [1] | percent effect (mortality or growth inhibition) at 200 ppm [5] | mortality at 200 ppm [10] | mortality at 200 ppm [2] | percent effect (mortality or growth inhibition) at 200 ppm [3] | mortality at 200 ppm [8] | mortality at 200 ppm [4]
